Here are results for 37 molecules from ChEMBL document CHEMBL3507680, “University of Dundee, Gates Library screen for HepG2 cell viability”.

Each structure is given as a SMILES string.

The nature of this series: Human HepG2 cell viability assay in 384 well format. The class given is toxicity, cell-based. Details: dose 125 nL, time 70.5 hour; concentration not given beside the values. To be noted: HepG2 cells, read-out: Inhibition.
In the case of `CCC1=N[C@@]2(CC[C@@H]3CN(C(=O)NCc4ccccc4)C[C@@H]32)C(=O)N1C`, the cytotoxicity at 70.5 h came to 26.3%.
In the case of `CC(C)N1CCO[C@H]2CN(C(=O)c3ccc(N(C)C)cc3)C[C@H]21` it was -2.38%; in that of `CC(C)NC(=O)C1CN(C(=O)N2CCCC2)CC12CCOCC2` (configuration not stated), -1.86%.
Turning to `O=C(c1ccccn1)C1CCCN(c2nccc(CCC(F)(F)F)n2)C1` (configuration not stated), the cytotoxicity at 70.5 h is -13.1%.
For the molecule `c1ccc(-c2nnc(CN3C[C@@H]4CC[C@H](C3)N(CC3CCC3)C4)o2)cc1`, the cytotoxicity at 70.5 h worked out at 18.8%.
In the case of `COCCN(C/C=C/c1ccccc1)Cc1ccccn1` it was 6.25%; in that of `O=C(NCCc1cccnc1)C1CCCN(Cc2ccco2)C1` (configuration not stated), 16.1%; in that of `Cc1ccccc1C(Nc1ncnc2c1CCNC2)c1ccccc1` (configuration not stated), -1.58%.
Take `CCOC(=O)CC(C)Nc1nc(C2CCCC2)nc2c1cnn2C` (configuration not stated): the cytotoxicity at 70.5 h is -12.8%.
`CC1(c2ccccc2)CCC(=O)N(CCN2CCCOC2=O)C1` (configuration not stated): the cytotoxicity at 70.5 h is -6.79%.
In the case of `CCN1CC(NC(=O)Nc2nc(C)n(C(C)C)n2)CC1=O` (configuration not stated) it was 9.96%; in that of `CCC[C@H]1CN(S(=O)(=O)c2ccccc2)C[C@@H]1N`, 16.4%.
As to `C=C(C)COc1cccc(CN(C)C(C)c2ccncn2)c1` (configuration not stated), the cytotoxicity at 70.5 h is -4.71%.
The same measure for `CNc1nc(N2C[C@H](NC(=O)CCOC)[C@@H](C3CC3)C2)nc2c1CCC2`: -15.7%.
With `Cc1cc(C)c(C(=O)NC(c2nnc3n2CCNCC3)C(C)C)c(C)c1` (configuration not stated), the cytotoxicity at 70.5 h is -5.04%.
In the case of `Cc1c(C(C)NC2CCCC2)cnn1-c1ccc(F)cc1F` (configuration not stated) it was 0.586%; in that of `c1cc(-c2nc3c(c(NCCc4c[nH]cn4)n2)CCNCC3)ccn1`, 5.61%.
In the case of `Cc1ncsc1C(=O)N[C@@H](Cc1ccccc1)C(N)=O` it was -1.24%; in that of `CC(C)n1cnnc1CN1CCC2(CCCN(C3CCCCC3)C2=O)C1` (configuration not stated), -2.59%; in that of `COc1ccc(C(=O)NC2CC2)c(OC2CCN(CC3CC3)CC2)c1`, -2.04%.
`CC[C@H](C)[C@@H](CO)NC(C)Cc1ccc(F)cc1` (some centres not stated): the cytotoxicity at 70.5 h is -5.84%.
In the case of `CS(=O)(=O)N1C[C@@H]2CC[C@H](C1)N(Cc1ccc3nsnc3c1)C2` it was 18.3%.
The same measure for `Cn1c(CN2CCCC(Cn3cc(CCO)nn3)C2)cc2ccccc21` (configuration not stated): -0.291%.
The same measure for `O=C1CCCCN1CC(=O)N1CCCC(c2ccccc2)C1` (configuration not stated): -20.6%.
Consider `CN(CCc1ccccn1)C(=O)CCC1CCCN(c2ncccn2)C1` (configuration not stated), for which the cytotoxicity at 70.5 h is -1.54%.
In the case of `CN1C(=O)C(c2ccccc2)CC12CCN(CCN)CC2` (configuration not stated) it was -5.41%; in that of `Cc1cccc(OC2CN(C(=O)c3cnn(C)c3)C2)c1`, 16.2%.
In the case of `Cc1csc(CN(C)C(=O)c2cccc(CCC(C)(C)O)c2)n1`, the cytotoxicity at 70.5 h is -6.05%.
In the case of `COc1cccc(CCC2CCCN(C(=O)c3ccc(=O)n(C)n3)C2)c1` (configuration not stated) it was -6.31%.
The same measure for `COCCC1CN(c2nc(-c3ccccc3)nc3c2CCNC3)CCO1` (configuration not stated): 25.4%; for `c1cncc(-c2cccc(-c3ccn(CCN4CCCCC4)n3)c2)c1`: 13.9%.
In the case of `CS(=O)(=O)N1CC[C@]2(O)CCN(c3cc(C#N)ccn3)C[C@@H]2C1` it was -11.9%; in that of `Cn1cc(CN2CCOCC3(C2)CN(c2ccccc2)C(=O)CO3)cn1` (configuration not stated), -5.28%.
For the molecule `COCCN(C)C[C@@H]1CCC[C@@H]2CN(c3cc(OC)ncn3)C[C@@H]21`, the cytotoxicity at 70.5 h is -4.84%.
Consider `CS(=O)(=O)N1CCC[C@]2(C[C@@H](Oc3ncccc3F)CO2)C1`, for which the cytotoxicity at 70.5 h was -5.05%.
Consider `O=C1CO[C@@H]2CN(Cc3cccs3)C[C@H]2N1Cc1ccncc1`, for which the cytotoxicity at 70.5 h turned out to be 7.47%.
In the case of `c1cn2c(n1)CN(CC1CC1)CC(CN1CCOCC1)C2` (configuration not stated) it was -7.21%.
